“And” between values parts separate entries of the source, which are not always exact repeats. Equal values may be shown once. Toxic doses and inconclusive results are not listed. Cut-off read from the data, not from the text of the source: active = T/C of 150% or more; inactive = T/C below 125%. Square brackets hold non-standard residues; d marks the D form. Peptide text beside a SMILES is read from it. * marks the point of attachment. Arg(NO2) = N=C(NCCC[CH](N)C(=O)O)N[N+](=O)[O-]; Cbz = O=C(OCc1ccccc1)*
Tested on: L1210 leukemia ip in BDF1 mice, survival T/C
Assay: NCI In Vivo Anticancer Drug Screen. Data for tumor model L1210 Leukemia (intraperitoneal) in B6D2F1 (BDF1) mice
Conditions: endpoint: mean survival time, higher = longer survival
Summary of the method: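 Transplanted-tumor mice were given test agent; controls received vehicle only. Survival readings from the two groups were divided (treated over control).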

[1] = dose: 100.0 mg/kg/injection, schedule: Q04DX003 (ip), vehicle: saline
[2] = dose: 100.0 mg/kg/injection, schedule: Q04DX003 (ip), vehicle: saline with Tween-80
[3] = dose: 200.0 mg/kg/injection, schedule: Q04DX003 (ip), vehicle: saline with Tween-80
[4] = dose: 400.0 mg/kg/injection, schedule: Q04DX003 (ip), vehicle: saline with Tween-80
[5] = dose: 100.0 mg/kg/injection, schedule: Q01DX Z (ip), vehicle: saline
[6] = dose: 100.0 mg/kg/injection, schedule: Q01DX001 (ip), vehicle: saline
[7] = dose: 200.0 mg/kg/injection, schedule: Q01DX001 (ip), vehicle: saline
[8] = dose: 400.0 mg/kg/injection, schedule: Q01DX001 (ip), vehicle: saline
[9] = dose: 100.0 mg/kg/injection, schedule: Q04DX002 (ip), vehicle: Klucel (hydroxypropylcellulose) (HPC)
[10] = dose: 100.0 mg/kg/injection, schedule: Q01DX009 (ip), vehicle: saline
[11] = dose: 200.0 mg/kg/injection, schedule: Q01DX009 (ip), vehicle: saline
[12] = dose: 100.0 mg/kg/injection, schedule: Q01DX009 (ip), vehicle: Klucel (hydroxypropylcellulose) (HPC)
[13] = dose: 200.0 mg/kg/injection, schedule: Q04DX003 (ip), vehicle: saline
[14] = dose: 400.0 mg/kg/injection, schedule: Q04DX003 (ip), vehicle: saline

Measured: T/C

O=C(C(=Nc1ccccc1)C(=Nc1ccccc1)C(=O)c1ccccc1)c1ccccc1
inactive: dose: 100.0 mg/kg/injection, schedule: Q01DX001 (ip), vehicle: Klucel (hydroxypropylcellulose) (HPC) 97 % of control | dose: 200.0 mg/kg/injection, schedule: Q01DX001 (ip), vehicle: Klucel (hydroxypropylcellulose) (HPC) 98 % of control | dose: 400.0 mg/kg/injection, schedule: Q01DX001 (ip), vehicle: Klucel (hydroxypropylcellulose) (HPC) 95 % of control

c1ccc(-c2ncc3cnccn23)cc1
inactive: dose: 25.0 mg/kg/injection, schedule: Q04DX003 (ip), vehicle: saline 100 % of control | dose: 50.0 mg/kg/injection, schedule: Q04DX003 (ip), vehicle: saline 102 % of control | [1] 98 % of control and 102 % of control

COc1ccc(Cl)cc1NC(=O)N/N=C(\C)CC(C)C
inactive: dose: 100.0 mg/kg/injection, schedule: Q01DX009 (ip), vehicle: saline with Tween-80 91 % of control | [2] 97 % of control | dose: 200.0 mg/kg/injection, schedule: Q01DX009 (ip), vehicle: saline with Tween-80 91 % of control | [3] 101 % of control | [4] 101 % of control

NCC(=O)NCCCCCCCCCCNC(=O)CN
inactive: dose: 10.0 mg/kg/injection, schedule: Q01DX Z (ip), vehicle: saline 98 % of control | dose: 30.0 mg/kg/injection, schedule: Q01DX Z (ip), vehicle: saline 95 % of control | [5] 98 % of control

CN(Cc1cnc(N)nc1N)c1ccc(C(=O)O)cc1
inactive: dose: 100.0 mg/kg/injection, schedule: Q01DX001 (ip), vehicle: carboxymethylcellulose (CMC) 90 % of control | dose: 400.0 mg/kg/injection, schedule: Q01DX001 (ip), vehicle: carboxymethylcellulose (CMC) 92 % of control

CCCCCCCCCCCCCCCCCCOc1ccc(Sc2ccc([N+](=O)[O-])cc2)cc1
inactive: dose: 100.0 mg/kg/injection, schedule: Q04DX003 (ip), vehicle: Klucel (hydroxypropylcellulose) (HPC) 87 % of control | dose: 200.0 mg/kg/injection, schedule: Q04DX003 (ip), vehicle: Klucel (hydroxypropylcellulose) (HPC) 88 % of control | dose: 400.0 mg/kg/injection, schedule: Q04DX003 (ip), vehicle: Klucel (hydroxypropylcellulose) (HPC) 88 % of control

CN1CCN=C1c1ccc(NC(=O)c2ccc(C(=O)Nc3ccc(C4=NCCN4C)cc3)c(Cl)c2)cc1
inactive: dose: 1.5 mg/kg/injection, schedule: Q01DX Z (ip), vehicle: water 101 % of control | dose: 3.0 mg/kg/injection, schedule: Q01DX Z (ip), vehicle: water 103 % of control | dose: 6.0 mg/kg/injection, schedule: Q01DX Z (ip), vehicle: water 119 % of control

O=[N+]([O-])c1ncn(C2OC(CO)C(O)C2O)c1Br (stereo unspecified)
inactive: dose: 50.0 mg/kg/injection, schedule: Q01DX001 (ip), vehicle: saline 98 % of control | [6] 102 % of control | [7] 102 % of control | [8] 104 % of control

O=C1C(F)=C(N2CC2)C(=O)C(F)=C1N1CC1
inactive: dose: 0.39 mg/kg/injection, schedule: Q01DX009 (ip), vehicle: Klucel (hydroxypropylcellulose) (HPC) 104 % of control | dose: 0.78 mg/kg/injection, schedule: Q01DX009 (ip), vehicle: Klucel (hydroxypropylcellulose) (HPC) 100 % of control | dose: 0.78 mg/kg/injection, schedule: Q04DX003 (ip), vehicle: alcohol 113 % of control | dose: 1.56 mg/kg/injection, schedule: Q01DX009 (ip), vehicle: Klucel (hydroxypropylcellulose) (HPC) 116 % of control | dose: 1.56 mg/kg/injection, schedule: Q04DX003 (ip), vehicle: alcohol 105 % of control | dose: 3.12 mg/kg/injection, schedule: Q01DX009 (ip), vehicle: Klucel (hydroxypropylcellulose) (HPC) 102 % of control | dose: 3.12 mg/kg/injection, schedule: Q04DX003 (ip), vehicle: alcohol 105 % of control | dose: 6.25 mg/kg/injection, schedule: Q01DX009 (ip), vehicle: Klucel (hydroxypropylcellulose) (HPC) 93 % of control | dose: 6.25 mg/kg/injection, schedule: Q04DX003 (ip), vehicle: saline 110 % of control | dose: 9.2 mg/kg/injection, schedule: Q01DX009 (ip), vehicle: Klucel (hydroxypropylcellulose) (HPC) 98 % of control | dose: 14.0 mg/kg/injection, schedule: Q01DX009 (ip), vehicle: Klucel (hydroxypropylcellulose) (HPC) 87 % of control

O=c1c[n+](Cc2ccc(Cl)cc2)[nH]o1
inactive: [5] 100 % of control | dose: 200.0 mg/kg/injection, schedule: Q01DX Z (ip), vehicle: saline 100 % of control

COc1ccc(C(=O)Nc2ccccc2SC)cc1
inactive: [9] 99 % of control | dose: 200.0 mg/kg/injection, schedule: Q04DX002 (ip), vehicle: Klucel (hydroxypropylcellulose) (HPC) 96 % of control | dose: 400.0 mg/kg/injection, schedule: Q04DX002 (ip), vehicle: Klucel (hydroxypropylcellulose) (HPC) 102 % of control

CC(C)C(NCCNC(C(C)C)C(C)C)C(C)C
inactive: dose: 50.0 mg/kg/injection, schedule: Q01DX009 (ip), vehicle: saline 106 % of control | [10] 102 % of control | [11] 106 % of control

NCC(=O)NC(Cc1c[nH]c2ccccc12)C(=O)O (stereo unspecified)
inactive: dose: 100.0 mg/kg/injection, schedule: Q01DX001 (ip), vehicle: acetone 97 % of control | dose: 200.0 mg/kg/injection, schedule: Q01DX001 (ip), vehicle: acetone 98 % of control | dose: 400.0 mg/kg/injection, schedule: Q01DX001 (ip), vehicle: acetone 92 % of control

c1ccc2c(c1)CCc1ccccc1CC2
inactive: [12] 93 % of control | dose: 200.0 mg/kg/injection, schedule: Q01DX009 (ip), vehicle: Klucel (hydroxypropylcellulose) (HPC) 96 % of control | dose: 400.0 mg/kg/injection, schedule: Q01DX009 (ip), vehicle: Klucel (hydroxypropylcellulose) (HPC) 90 % of control

COC(=O)C(CCCN=C(N)N[N+](=O)[O-])NC(=O)C(Cc1ccccc1)NC(=O)C1CCCN1C(=O)OCc1ccccc1 (stereo not drawn) (Cbz-Pro-Phe-[Arg(NO2)]-OMe; configuration not given here)
inactive: [6] 90 % of control | [7] 96 % of control | [8] 92 % of control

CC(=O)OC(C)(C)/C=C/C(=O)[C@](C)(O)[C@H]1[C@H](O)C[C@@]2(C)[C@@H]3CC=C4[C@@H](CC[C@H](O)C4(C)C)[C@]3(CO)C(=O)C[C@]12C
inactive: dose: 0.57 mg/kg/injection, schedule: Q01DX Z (ip), vehicle: saline 106 % of control | dose: 0.86 mg/kg/injection, schedule: Q01DX Z (ip), vehicle: saline 106 % of control | dose: 1.3 mg/kg/injection, schedule: Q01DX Z (ip), vehicle: saline 112 % of control

O=C(NCc1ccccc1)C1C2CC3OC(=O)C1C3C2 (stereo unspecified)
inactive: [2] 98 % of control | [1] 123 % of control | [3] 95 % of control | [13] 104 % of control | [4] 95 % of control | [14] 104 % of control

CCOC(=O)/C(C#N)=C/c1ccc2n1Cc1cc(OC)c(OC)cc1N(C(C)=O)C2
inactive: dose: 25.0 mg/kg/injection, schedule: Q04DX002 (ip), vehicle: Klucel (hydroxypropylcellulose) (HPC) 95 % of control | dose: 50.0 mg/kg/injection, schedule: Q04DX002 (ip), vehicle: Klucel (hydroxypropylcellulose) (HPC) 93 % of control | [9] 87 % of control

CCC(C)(C)C(=O)Nc1cccc(OC(=O)NC)c1
inactive: dose: 400.0 mg/kg/injection, schedule: Q01DX009 (ip), vehicle: saline with Tween-80 93 % of control

O=C1C(c2ccccc2)=S=C2Sc3ccccc3N12
inactive: [12] 90 % of control

CCC(CC)OC(=O)Nc1cccc(OC(=O)NC)c1
inactive: [2] 104 % of control | [3] 95 % of control

O=S(=O)(c1ccc(Cl)cc1)N1CCN(S(=O)(=O)c2ccc(Cl)cc2)C1
inactive: [10] 97 % of control | [1] 95 % of control | [11] 94 % of control | [13] 92 % of control | dose: 400.0 mg/kg/injection, schedule: Q01DX009 (ip), vehicle: saline 92 % of control | [14] 103 % of control

Source: PubChem BioAssay AID248 (DTP/NCI, 2004)
